These results are taken from patent publication US20160046618A1, “Cyclopropyl Fused Thiazin-2-Amine Compounds as Beta-Secretase Inhibitors and Methods of Use” (AMGEN INC., priority 2014, published 2016).

A word on the IC50: it is the concentration needed to halve the response being measured.

One test deals with human recombinant BACE1 (Homo sapiens (Human), UniProt P56817). Put plainly: In vitro enzymatic BACE1 FRET assay. Conditions: read-out: IC50 IP (μM) BACE1 enzyme. Format: biochemical. The procedure, abridged: (§1)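 Fluorescence from cleavage of a quenched peptide spanning the BACE site (50 nM) was read at 488 nm excitation, 590 nm emission. Purified enzyme (Ni-NTA) and compound reacted for one hour before a Tris stop shifted pH to neutral.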

Test [1] deals with Aβ40 in conditioned medium of cells stably expressing Amyloid Precursor Protein (APP). Put plainly: In vitro BACE-1 cell-based assay (Aβ40 sandwich ELISA). The settings on record: read-out: IC50 IP (μM) BACE1 cell. The procedure, abridged:
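Aβ40 in supernatants measured by time-resolved fluorescence sandwich ELISA, with pAb40 as capture and biotin-6E10 as detector antibody, each incubated at 4 °C.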
For orientation: An ELISA detects its analyte on a solid surface through an enzyme-linked reagent.

A further test deals with human recombinant BACE2 (Homo sapiens (Human), UniProt Q9Y5Z0). Put plainly: In vitro enzymatic BACE2 FRET assay. Type of test: biochemical. Conditions: read-out: IC50 IP (μM) BACE2 enzyme. The method, boiled down:
as §1

In another test the target is Recombinant Cat D (Homo sapiens (Human), UniProt P07339). Put plainly: In vitro enzymatic Cathepsin D (Cat D) FRET assay. Format: biochemical. Conditions: read-out: IC50 IP (μM) CatD. The procedure, abridged: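 Human Cat D expressed in CHO cells was incubated for one hour in 0.05 M citrate pH 3.5, 5 mM CHAPS, 10% DMSO final, with 20 nM quenched FRET peptide substrate. Reactions were stopped with Tris buffer raising pH to neutrality. Cleavage was read as fluorescence at excitation 500 nm, emission 580 nm.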
Sequence of Recombinant Cat D (P07339 65-412): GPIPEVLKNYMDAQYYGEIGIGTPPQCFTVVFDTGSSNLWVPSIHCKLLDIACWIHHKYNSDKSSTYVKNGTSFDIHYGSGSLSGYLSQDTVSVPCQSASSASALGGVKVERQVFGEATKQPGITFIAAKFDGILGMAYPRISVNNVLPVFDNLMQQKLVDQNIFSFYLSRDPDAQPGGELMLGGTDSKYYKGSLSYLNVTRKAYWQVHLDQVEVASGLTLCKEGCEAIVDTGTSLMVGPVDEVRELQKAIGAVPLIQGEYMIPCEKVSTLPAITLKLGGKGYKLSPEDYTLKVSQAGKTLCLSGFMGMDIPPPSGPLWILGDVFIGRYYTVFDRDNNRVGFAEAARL

Sequence of human recombinant BACE2 (Q9Y5Z0 63-518): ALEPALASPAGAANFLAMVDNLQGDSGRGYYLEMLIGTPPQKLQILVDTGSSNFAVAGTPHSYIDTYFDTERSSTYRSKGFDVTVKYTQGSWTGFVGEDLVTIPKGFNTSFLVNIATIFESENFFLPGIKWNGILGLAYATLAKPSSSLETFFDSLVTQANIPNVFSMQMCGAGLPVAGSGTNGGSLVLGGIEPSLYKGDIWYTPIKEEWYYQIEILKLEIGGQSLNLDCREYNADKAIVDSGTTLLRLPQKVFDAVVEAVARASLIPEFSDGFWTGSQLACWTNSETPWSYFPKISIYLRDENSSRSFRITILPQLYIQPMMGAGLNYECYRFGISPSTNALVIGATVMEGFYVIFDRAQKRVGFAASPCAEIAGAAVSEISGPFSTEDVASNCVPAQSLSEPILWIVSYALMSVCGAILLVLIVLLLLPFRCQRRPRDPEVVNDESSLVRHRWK
Sequence of human recombinant BACE1 (P56817 46-501): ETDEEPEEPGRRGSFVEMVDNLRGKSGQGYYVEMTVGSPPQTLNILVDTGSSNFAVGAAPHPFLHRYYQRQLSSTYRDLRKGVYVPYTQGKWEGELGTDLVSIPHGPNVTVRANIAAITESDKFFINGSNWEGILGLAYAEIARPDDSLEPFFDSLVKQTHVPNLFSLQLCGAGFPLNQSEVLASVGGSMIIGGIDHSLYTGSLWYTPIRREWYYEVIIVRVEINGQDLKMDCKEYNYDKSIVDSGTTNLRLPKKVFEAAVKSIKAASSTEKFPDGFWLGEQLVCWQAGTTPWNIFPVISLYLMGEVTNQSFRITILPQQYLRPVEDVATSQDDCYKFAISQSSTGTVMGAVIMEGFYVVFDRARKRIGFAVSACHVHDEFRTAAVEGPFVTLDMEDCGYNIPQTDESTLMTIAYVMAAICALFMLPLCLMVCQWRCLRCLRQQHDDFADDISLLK

On to `NC1=N[C@](CF)(c2cc(NC(=O)c3ccc(Cl)cn3)ccc2F)[C@@H]2C[C@]2(c2ccon2)S1` [Example 786, N-(3-((1S,5S,6S)-3-amino-5-(fluoromethyl)-1-(isoxazol-3-yl)-2-thia-4-azabicyclo[4.1.0]hept-3-en-5-yl)-4-fluorophenyl)-5-chloropicolinamide], for which the IC50 at human recombinant BACE1 was 0.000976 µM; in test [1] it was 0.0464 µM; at human recombinant BACE2 it was below 0.00203 µM; on Recombinant Cat D, 584 µM.
Take `Cc1ncoc1[C@]12C[C@H]1[C@@](CF)(c1cc(NC(=O)c3ccc(Cl)cn3)ccc1F)N=C(N)S2` [Example 787, N-(3-((1S,5S,6S)-3-amino-5-(fluoromethyl)-1-(4-methyl-1,3-oxazol-5-yl)-2-thia-4-azabicyclo[4.1.0]hept-3-en-5-yl)-4-fluorophenyl)-5-chloro-2-pyridinecarboxamide]: the concentration for half-maximal inhibition (IC50) at human recombinant BACE1 was 0.000847 µM; in test [1], 0.0139 µM; at human recombinant BACE2 it was below 0.00203 µM; on Recombinant Cat D it was 1230 µM.
Consider `C#CCOc1cnc2c(Nc3ccc(F)c([C@@]4(CF)N=C(N)S[C@@]5(c6ocnc6C)C[C@@H]45)c3)ncnc2c1` [Example 788, N-(3-((1S,5S,6S)-3-amino-5-(fluoromethyl)-1-(4-methyl-1,3-oxazol-5-yl)-2-thia-4-azabicyclo[4.1.0]hept-3-en-5-yl)-4-fluorophenyl)-7-(2-propyn-1-yloxy)pyrido[3,2-d]pyrimidin-4-amine], for which the IC50 at human recombinant BACE1 worked out at 0.00127 µM; in test [1] it was 0.0161 µM; on human recombinant BACE2, 0.0122 µM; at Recombinant Cat D, 485 µM.
The corresponding values for `C#CCOc1ccc(C(=O)Nc2ccc(F)c([C@@]3(CF)N=C(N)S[C@@]4(c5ocnc5C)C[C@@H]34)c2)nc1` [Example 789, N-(3-((1S,5S,6S)-3-amino-5-(fluoromethyl)-1-(4-methyl-1,3-oxazol-5-yl)-2-thia-4-azabicyclo[4.1.0]hept-3-en-5-yl)-4-fluorophenyl)-5-(2-propyn-1-yloxy)-2-pyridinecarboxamide] are 0.000528 µM, 0.0259 µM, 0.00936 µM and 835 µM.
With `CN(C)C(=O)[C@]12C[C@H]1[C@@](CF)(c1cc(NC(=O)c3ccc(Cl)cn3)ccc1F)N=C(N)S2` [Example 790, (1S,5S,6S)-3-amino-5-(5-(((5-chloro-2-pyridinyl)carbonyl)amino)-2-fluorophenyl)-5-(fluoromethyl)-N,N-dimethyl-2-thia-4-azabicyclo[4.1.0]hept-3-ene-1-carboxamide], the IC50 is 0.000338 µM at human recombinant BACE1, 0.0028 µM in test [1], below 0.00203 µM on human recombinant BACE2 and 792 µM on Recombinant Cat D.
For the compound `C#CCOc1cnc2c(Nc3ccc(F)c([C@@]4(C)N=C(N)S[C@@]5(C(=O)NC6CC6)C[C@H]54)c3)ncnc2c1` [Example 791, (1S,5S,6S)-3-amino-N-cyclopropyl-5-(2-fluoro-5-((7-(2-propyn-1-yloxy)pyrido[3,2-d]pyrimidin-4-yl)amino)phenyl)-5-methyl-2-thia-4-azabicyclo[4.1.0]hept-3-ene-1-carboxamide], the IC50 at human recombinant BACE1 was determined as 0.000658 µM; in test [1] it was 0.00183 µM; at human recombinant BACE2 it was 0.0712 µM; on Recombinant Cat D it was 317 µM.
For the compound `C[C@]1(c2cc(NC(=O)c3ccc(Cl)cn3)ccc2F)N=C(N)S[C@@]2(C(=O)NC3CC3)C[C@H]21` [Example 792, (1S,5S,6S)-3-amino-5-(5-(((5-chloro-2-pyridinyl)carbonyl)amino)-2-fluorophenyl)-N-cyclopropyl-5-methyl-2-thia-4-azabicyclo[4.1.0]hept-3-en-1-carboxamide], the IC50 on human recombinant BACE1 is 0.00075 µM; in test [1], 0.000971 µM; at human recombinant BACE2 it was below 0.00203 µM; at Recombinant Cat D it was 134 µM.
For the compound `C#CCOc1ccc(C(=O)Nc2ccc(F)c([C@@]3(CF)N=C(N)S[C@@]4(c5ccon5)C[C@@H]34)c2)nc1` [Example 793, N-(3-((1S,5S,6S)-3-amino-5-(fluoromethyl)-1-(3-isoxazolyl)-2-thia-4-azabicyclo[4.1.0]hept-3-en-5-yl)-4-fluorophenyl)-5-(2-propyn-1-yloxy)-2-pyridinecarboxamide], the IC50 worked out at 0.000293 µM on human recombinant BACE1, 0.0153 µM in test [1], 0.00477 µM on human recombinant BACE2 and 482 µM at Recombinant Cat D.
For the compound `C#CCOc1cnc2c(Nc3ccc(F)c([C@@]4(C)N=C(N)S[C@@]5(C(=O)NC6CC6)C[C@H]54)c3)nccc2n1` [Example 794, (1S,5S,6S)-3-amino-N-cyclopropyl-5-(2-fluoro-5-((2-(2-propyn-1-yloxy)pyrido[3,4-b]pyrazin-5-yl)amino)phenyl)-5-methyl-2-thia-4-azabicyclo[4.1.0]hept-3-ene-1-carboxamide], the IC50 on human recombinant BACE1 was 0.000846 µM; in test [1] it was 0.0012 µM; on human recombinant BACE2, 0.0397 µM; at Recombinant Cat D, 316 µM.
`C[C@]1(c2cc(Nc3nccc4nc(OCc5ncco5)cnc34)ccc2F)N=C(N)S[C@@]2(C(=O)NC3CC3)C[C@H]21` [Example 796, (1S,5S,6S)-3-amino-N-cyclopropyl-5-(2-fluoro-5-((2-(1,3-oxazol-2-ylmethoxy)pyrido[3,4-b]pyrazin-5-yl)amino)phenyl)-5-methyl-2-thia-4-azabicyclo[4.1.0]hept-3-ene-1-carboxamide]: the IC50 came to 0.000859 µM on human recombinant BACE1, 0.00354 µM in test [1], 0.0628 µM at human recombinant BACE2 and 543 µM on Recombinant Cat D.
`CC(C)(C)NC(=O)[C@]12C[C@H]1[C@@](C)(c1cc(NC(=O)c3ccc(Cl)cn3)ccc1F)N=C(N)S2` [Example 797, (1S,5S,6S)-3-amino-N-tert-butyl-5-(5-(((5-chloro-2-pyridinyl)carbonyl)amino)-2-fluorophenyl)-5-methyl-2-thia-4-azabicyclo[4.1.0]hept-3-ene-1-carboxamide]: the IC50 at human recombinant BACE1 was 0.00452 µM; in test [1], 0.0211 µM; at human recombinant BACE2, below 0.00203 µM; at Recombinant Cat D, 147 µM.
On to `C#CCOc1cnc(C(=O)Nc2ccc(F)c([C@@]3(C)N=C(N)S[C@@]4(C(=O)NC(C)(C)C)C[C@H]43)c2)cn1` [Example 798, (1S,5S,6S)-3-amino-N-tert-butyl-5-(2-fluoro-5-(((5-(2-propyn-1-yloxy)-2-pyrazinyl)carbonyl)amino)phenyl)-5-methyl-2-thia-4-azabicyclo[4.1.0]hept-3-ene-1-carboxamide], for which the half-inhibitory concentration (IC50) on human recombinant BACE1 is 0.000294 µM; in test [1] it was 0.000715 µM; at human recombinant BACE2, 0.0272 µM; at Recombinant Cat D it was 4.72 µM.
The corresponding values for `C[C@]1(c2cc(NC(=O)c3cnc(OCc4ncco4)cn3)ccc2F)N=C(N)S[C@@]2(C(=O)NC3CC3)C[C@H]21` [Example 799, (1S,5S,6S)-3-amino-N-cyclopropyl-5-(2-fluoro-5-(((5-(1,3-oxazol-2-ylmethoxy)-2-pyrazinyl)carbonyl)amino)phenyl)-5-methyl-2-thia-4-azabicyclo[4.1.0]hept-3-ene-1-carboxamide] are 0.000382 µM, 0.00075 µM, 0.015 µM and 349 µM.
Regarding `C[C@]1(c2cc(NC(=O)c3cnc(OCC(F)(F)F)cn3)ccc2F)N=C(N)S[C@@]2(C(=O)NC3CC3)C[C@H]21` [Example 800, (1S,5S,6S)-3-amino-N-cyclopropyl-5-(2-fluoro-5-(((5-(2,2,2-trifluoroethoxy)-2-pyrazinyl)carbonyl)amino)phenyl)-5-methyl-2-thia-4-azabicyclo[4.1.0]hept-3-ene-1-carboxamide], the IC50 at human recombinant BACE1 worked out at 0.000711 µM; in test [1] it was 0.00659 µM; on human recombinant BACE2 it was 0.0841 µM; at Recombinant Cat D, 293 µM.
Consider `COC[C@]12C[C@H]1[C@@](C)(c1cc(Nc3ncnc4cc(OCc5ncco5)cnc34)cc(F)c1F)N=C(N)S2` [Example 809, N-(3-((1S,5S,6S)-3-amino-1-(methoxymethyl)-5-methyl-2-thia-4-azabicyclo[4.1.0]hept-3-en-5-yl)-4,5-difluorophenyl)-7-(1,3-oxazol-2-ylmethoxy)pyrido[3,2-d]pyrimidin-4-amine], for which the IC50 on human recombinant BACE1 worked out at 0.000974 µM; in test [1], 0.00181 µM; on human recombinant BACE2, 0.0358 µM; on Recombinant Cat D, 123 µM.
On to `C[C@]1(c2cc(NC(=O)c3cnc(OCc4ncco4)cn3)cc(F)c2F)N=C(N)S[C@@]2(CF)C[C@H]21` [Example 811, N-(3-((1S,5S,6S)-3-amino-1-(fluoromethyl)-5-methyl-2-thia-4-azabicyclo[4.1.0]hept-3-en-5-yl)-4,5-difluorophenyl)-5-(1,3-oxazol-2-ylmethoxy)-2-pyrazinecarboxamide], for which the IC50 on human recombinant BACE1 was 0.000676 µM; in test [1], 0.00126 µM; on human recombinant BACE2 it was 0.0207 µM; on Recombinant Cat D it was 297 µM.
As for `C#CCOc1cnc2c(Nc3ccc(F)c([C@@]4(C)N=C(N)S[C@@]5(C(F)F)C[C@@H]45)c3)nccc2n1` [Example 816, N-(3-((1S,5S,6S)-3-amino-1-(difluoromethyl)-5-methyl-2-thia-4-azabicyclo[4.1.0]hept-3-en-5-yl)-4-fluorophenyl)-2-(2-propyn-1-yloxy)pyrido[3,4-b]pyrazin-5-amine], the IC50 on human recombinant BACE1 stood at 0.000244 µM; in test [1], 0.00122 µM; at human recombinant BACE2 it was 0.0183 µM; at Recombinant Cat D, 73.6 µM.
